Where two headings read alike, the source gives them in different places.
Legend:
cytochrome P450 [1] = settings: dose far in excess of the amount in grapefruit juice; cited from earlier work
P450 1A1 = settings: cited from earlier work
P450 1A2 = settings: cited from earlier work
CYP3A [2] = settings: cited from earlier work
P450 2B1 = settings: cited from earlier work
P450 2B4 = settings: cited from earlier work
P450 [3] = settings: in vivo, treated rats; cited from earlier work
CYP3A [4] = assay: CYP3A activity: 6β-hydroxytestosterone formation from testosterone in rat liver microsomes
Description: (§1) Measurement of CYP3A Activity. CYP3A activity was assessed by measuring the formation rate of 6β-hydroxytestosterone from testosterone in dexamethasone-induced liver microsomes from male Sprague-Dawley rats (Human Biologics Inc., Phoenix, Az.) using incubation conditions identical to those described previously. Edwards, D. J. et al., Life Sci. 59:1025-1030 (1996). […] Siess, M.-H. et al., Toxicol. Appl. Pharmacol. 130:73-78 (1995). In addition, 6β-hydroxytestosterone formation was also measured in human lymphoblast microsomes containing CYP3A4 expressed from transfected human CYP3A4 cDNA (Gentest Corporation, Woburn, Mass.).
(§2) HPLC Procedures and instrumentation. […] Methylene chloride (4 ml) was added and samples were vortex mixed for 2 minutes. After centrifugation, the organic phase was evaporated, the residue re-constituted in 200 μl of mobile phase (55% methanol in water) and injected (100 μl) onto the column (Partisil 5 ODS-3 25 cm C18 column, Whatman Inc., Clifton, N.J.). A mobile phase flow rate of 1.2 ml/minute was used with detection of analytes at 254 nm (Waters 490E multiwavelength UV detector, Waters Corp., Milford, Mass.).
Metabolic Experiments. Grapefruit juice (1 ml) was extracted into methylene chloride and, following evaporation of the organic phase, the residue was reconstituted in mobile phase and chromatographed by HPLC. Fractions of the HPLC eluent were collected at 3-4 minute intervals following injection, evaporated and the effect of the residue on 6β-hydroxytestosterone formation examined. […] Edwards, D. J. et al., Life Sci. 59:1025-1030 (1996). The effect of these solutions on 6β-hydroxytestosterone formation was compared using analysis of variance (SYSTAT for Windows™, Version 5.0) with the Tukey test for post-hoc analysis (p<0.05 for significance).

human CYP3A4 = human CYP3A4 (Homo sapiens, UniProt P08684); assay: 6β-hydroxytestosterone formation in human lymphoblast microsomes containing CYP3A4 expressed from transfected human CYP3A4 cDNA
Description: as §1, §2
Metabolic Experiments. Grapefruit juice (1 ml) was extracted into methylene chloride and, following evaporation of the organic phase, the residue was reconstituted in mobile phase and chromatographed by HPLC. […]

CYP3A4 (3A4) = assay: Inhibition of CYP3A4 in a purified enzyme preparation; type: biochemical
[5] = Solubility in ethanol versus water; type: physicochemical; settings: ethanol vs water
P450 3A4 [6] = target: T1, P450 3A4 (Homo sapiens, UniProt P08684); settings: for inhibition: e. coli membranes
Target sequence in this assay (P08684 whole entry): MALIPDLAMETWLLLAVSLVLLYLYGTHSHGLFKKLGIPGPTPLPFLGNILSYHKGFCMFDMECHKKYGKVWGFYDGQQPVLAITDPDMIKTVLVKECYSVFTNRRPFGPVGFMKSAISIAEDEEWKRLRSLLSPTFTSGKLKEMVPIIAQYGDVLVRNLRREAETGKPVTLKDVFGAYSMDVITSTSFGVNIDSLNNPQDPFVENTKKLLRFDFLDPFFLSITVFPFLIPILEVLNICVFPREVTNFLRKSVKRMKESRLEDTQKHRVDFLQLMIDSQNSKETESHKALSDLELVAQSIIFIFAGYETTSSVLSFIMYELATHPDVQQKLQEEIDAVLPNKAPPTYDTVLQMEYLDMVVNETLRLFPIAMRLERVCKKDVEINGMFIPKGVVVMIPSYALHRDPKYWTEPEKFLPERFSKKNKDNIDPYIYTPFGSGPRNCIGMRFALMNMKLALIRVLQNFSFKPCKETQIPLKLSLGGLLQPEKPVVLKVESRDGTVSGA
Target sequence in this assay (P16435 whole entry partner): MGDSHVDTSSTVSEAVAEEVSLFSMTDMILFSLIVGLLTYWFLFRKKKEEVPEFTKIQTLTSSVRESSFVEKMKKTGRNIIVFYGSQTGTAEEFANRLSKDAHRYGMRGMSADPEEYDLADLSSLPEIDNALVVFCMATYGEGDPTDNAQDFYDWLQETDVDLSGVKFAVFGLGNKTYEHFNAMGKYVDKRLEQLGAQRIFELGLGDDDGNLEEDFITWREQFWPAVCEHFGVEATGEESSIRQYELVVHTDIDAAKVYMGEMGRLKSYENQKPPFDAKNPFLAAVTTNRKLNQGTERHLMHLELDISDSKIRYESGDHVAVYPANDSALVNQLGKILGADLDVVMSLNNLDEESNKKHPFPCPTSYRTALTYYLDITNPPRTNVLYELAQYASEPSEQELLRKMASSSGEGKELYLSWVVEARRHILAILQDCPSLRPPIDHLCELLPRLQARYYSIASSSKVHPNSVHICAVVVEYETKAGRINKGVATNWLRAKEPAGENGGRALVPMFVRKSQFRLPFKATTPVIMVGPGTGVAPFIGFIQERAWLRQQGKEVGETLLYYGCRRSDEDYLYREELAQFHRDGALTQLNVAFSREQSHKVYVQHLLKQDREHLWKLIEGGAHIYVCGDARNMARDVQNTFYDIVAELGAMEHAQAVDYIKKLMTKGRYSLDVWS
Description: Determination of testosterone 6β-hydroxylation. The human liver microsomes or the P450 3A4 and reductase containing E. coli membrane fractions (100 μmol of P450) were incubated with 200 μM testosterone in 1 ml of 50 mM Hepes buffer (pH 7.5). The reactions were initiated by the addition of 1 mM NADPH and terminated by 1 ml of ethyl acetate in ice. The 6β-hydoxytestosterone product was determined by HPLC on a C18 column (Microsorb-MV, 5 μm, 4.6×15 cm) eluted with a mobile phase of 65% of methanol at flow rate of 1 ml/min and the eluate was monitored by UV detection at 254 nm.

P450 3A4 [7] = target: T1, P450 3A4; assay: Inactivation of P450 3A4 in human liver microsomes (testosterone 6β-hydroxylation, P450 content); type: biochemical; set-up: The human liver microsomes was prepared by differential centrifugation; from tissue; host or cells: human liver (microsomes); settings: for P450 Content / Testosterone 6-β hydroxylation: 400 μM DHB, 15 min, 37° C., pH 7.5
Description: Inactivation of P450 3A4 in human liver microsomes and E. coli membranes. […] At end of the incubation, 100 μl of the incubation mixture was taken for determination of testosterone 6β-hydroxylation activity. The other aliquot was used for P450 determination by the method of Omura and Sato. Ducharme, M. P. et al., Clin. Pharmacol. Ther. 57:485-491 (1995). The human liver microsomes was prepared by differential centrifugation.
Determination of testosterone 6β-hydroxylation. The human liver microsomes or the P450 3A4 and reductase containing E. coli membrane fractions ([…] of P450) were incubated with 200 μM testosterone in 1 ml of 50 mM Hepes buffer (pH 7.5). The reactions were initiated by the addition of 1 mM NADPH and terminated by 1 ml of ethyl acetate in ice. The 6β-hydoxytestosterone product was determined by HPLC on a C18 column (Microsorb-MV, 5 μm, 4.6×15 cm) eluted with a mobile phase of 65% of methanol at flow rate of 1 ml/min and the eluate was monitored by UV detection at 254 nm.
Target sequence in this assay (P08684 whole entry): as the sequence (P08684 whole entry) above

oxidative metabolism = settings: in vitro; cited from earlier work
CYP3A4 = settings: human, in vivo; cited from earlier work
P450 [8] = settings: oral erythromycin; oral and IV midazolam; cited from earlier work
cytochrome P450 [9] = settings: cited from earlier work
CYP3A [10] = settings: co-administration; cited from earlier work
[11] = preincubation with DHB and NADPH

Chain of human CYP3A4 (P08684 whole entry): as above

Q: Which “effect on cytochrome P450 activity” value (cytochrome P450 [1]) does the source give for `O=c1c(O)c(-c2ccc(O)c(O)c2)oc2cc(O)cc(O)c12` [quercetin] here?
A: The value was “no effect”.

Q: Which “binding to apoP450” value (P450 1A1) does the source give for `COc1c2ccoc2cc2cc(C)oc(=O)c12` [coriandrin] here?
A: Its value is “covalent binding”.

Q: What about the “binding to apoP450” value (P450 1A2) of the same compound?
A: The value was “covalent binding”.

Q: For `O=C1C[C@@H](c2ccc(O)cc2)Oc2cc(O)cc(O)c21` [naringenin], which “inhibition of CYP3A / contribution to it” value (CYP3A [2]) is on record?
A: Its value is “do not significantly contribute”.

Q: With `C#Cc1ccc2c(ccc3ccccc32)c1` [2-ethynylphenanthrene] as the compound, how does the mechanism based inactivation (P450 2B1) read?
A: Its mechanism based inactivation is “mechanism based inactivation”.

Q: And the mechanism based inactivation (P450 2B4)?
A: Its mechanism based inactivation is “mechanism based inactivation”.

Q: With `COc1c2occc2cc2ccc(=O)oc12` [8-methoxyporalen] as the compound, how does the “heme fragment, MI complex and heme adduct formation” value (P450 [3]) read?
A: Its value is “no heme fragment, MI complex and heme adduct formation”.

Q: Which “inhibition, concentration dependence and need of pre-incubation” value (CYP3A [4]) does the source give for `C/C(=C\COc1c2ccoc2cc2oc(=O)ccc12)CCC(O)C(C)(C)O` (centres unmarked) [6',7'-dihydroxybergamottin] here?
A: Its value is “inhibition is concentration-dependent and requires no pre-incubation with microsomes”.

Q: What about the IC50 (CYP3A [4]; microsomes) of the same compound?
A: Its IC50 is 25 µM.

Q: And the IC50 (human CYP3A4)?
A: The IC50 was 1000 to 2000 nM.

Q: And the “inactivation of 3A4, in words” value (CYP3A4 (3A4))?
A: Its value is “potent NADPH- and time dependent inactivator of 3A4”.

Q: And the “solubility, in words” value [5]?
A: Its value is “much more soluble in ethanol than water”.

Q: What about the inhibition (P450 3A4 [6]) of the same compound?
A: The inhibition was about 45%.

Q: What about the inhibition (P450 3A4 [6]; 15 min) of the same compound?
A: The inhibition was 90%.

Q: And the “inactivation of 3A4, in words” value (P450 3A4 [6]; human 3A4 expressed in E. coli membrane)?
A: The value was “potent NADPH- and time dependent inactivator of 3A4”.

Q: What about the “effect of GSH on inactivation” value (P450 3A4 [7]; 2 mM GSH in the incubation system) of the same compound?
A: Its value is “not inhibited by the presence of 2 mM GSH”.

Q: And the “P450 Content” value (P450 3A4 [7]; +NADPH/+DHB)?
A: Its value is 0.87 nmol/mL.

Q: And the “Testosterone 6-β hydroxylation” value (P450 3A4 [7]; +NADPH/+DHB)?
A: The value was 0.18 nmol/nmol P450/min.

Q: And the “P450 Content” value (P450 3A4 [7]; -NADPH/+DHB)?
A: Its value is 0.93 nmol/mL.

Q: And the “Testosterone 6-β hydroxylation” value (P450 3A4 [7]; -NADPH/+DHB)?
A: Its value is 0.37 nmol/nmol P450/min.

Q: And the “inhibition of 6β-hydroxytestosterone formation activity, mode” value (P450 3A4 [7]; FIG. 4, human liver microsomes)?
A: Its value is “time and concentration dependent as well as requiring catalytic turnover”.

Q: What about the “P450 3A4 activity inhibition, in words” value (P450 3A4 [7]; human liver microsomes) of the same compound?
A: The value was “significantly inhibited”.

Q: What about the “inactivation of 3A4, in words” value (P450 3A4 [7]; human liver microsomes) of the same compound?
A: The value was “potent NADPH- and time dependent inactivator of 3A4”.

Q: What about the “P450 retained (reduced-CO spectrum)” value (P450 3A4 [7]; [11]) of the same compound?
A: The value was “about 90%”.

Q: And the “loss of P450 3A4 catalytic activity” value (P450 3A4 [7]; [11])?
A: The value was 70%.

Q: What about the inhibition at 20 µM (P450 3A4 [7]; without preincubation, final concentration of 20 μM, read-out: testosterone 6β-hydroxylase activity inhibited (competitive inhibition)) of the same compound?
A: Its inhibition at 20 µM is about 30%.

Q: Which “inhibition of oxidative metabolism” value (oxidative metabolism) does the source give for `C[C@@H]1O[C@@H](O[C@H]2[C@H](Oc3cc(O)c4c(c3)O[C@H](c3ccc(O)cc3)CC4=O)O[C@H](CO)[C@@H](O)[C@@H]2O)[C@H](O)[C@H](O)[C@H]1O` [naringin] here?
A: Its value is “weak inhibitor”.

Q: And the “effect on disposition of substrates for CYP3A4” value (CYP3A4)?
A: The value was “did not significantly affect”.

Q: And the “inhibition of CYP3A / contribution to it” value (CYP3A [2])?
A: Its value is “do not significantly contribute”.

Q: With `CC[C@H]1OC(=O)[C@H](C)[C@@H](O[C@H]2C[C@@](C)(OC)[C@@H](O)[C@H](C)O2)[C@H](C)[C@@H](O[C@@H]2O[C@H](C)C[C@H](N(C)C)[C@H]2O)[C@](C)(O)C[C@@H](C)C(=O)[C@H](C)[C@@H](O)[C@]1(C)O` [erythromycin] as the compound, how does the metabolism of midazolam (P450 [8]) read?
A: The metabolism of midazolam was “impaired the metabolism of midazolam after both oral and IV administration”.

Q: With chlorophyllin as the compound, how does the “inhibition of cytochrome P450 activity” value (cytochrome P450 [9]) read?
A: Its value is “non-specific inhibition of cytochrome P450 activity”.

Q: What does the source list for `C#Cc1cc2ccccc2c2ccccc12` [9-ethynylphenanthrene]?
A: mechanism based inactivation (P450 2B1): mechanism based inactivation; mechanism based inactivation (P450 2B4): mechanism based inactivation

Q: Which results are given for `CC(=O)N1CCN(c2ccc(OCC3COC(Cn4ccnc4)(c4ccc(Cl)cc4Cl)O3)cc2)CC1` (centres unmarked) [ketoconazole, reference compound]?
A: IC50 (CYP3A [4]; read-out: concentration required to inhibit 6β-hydroxytestosterone formation by 50% (IC50), rat liver microsomes (dexamethasone-induced)): […]; bioavailability of cyclosporine (CYP3A [10]): increases bioavailability

— US6160006A (priority 1997, dated 2000)
